We go through one compound from US20110065645A1, “Compositions and Methods for Modulating Neuron Degeneration and Neuron Guidance” (The Regents of the University of California, priority 2009, published 2011).

Each structure is given as a SMILES string.

In experiment [1] the test system is commissural axons. The experiment can be described thus: Open book spinal cord explant treatments and DiI injections (midline pathfinding). In kind it is cell-based. The note with it: rat E13 open-book; 5E1 100 ng/ml, Forskolin 25 μM, KT5720 25 μM; 12-14 hrs. An excerpt:
Blocking Shh activity causes midline guidance defects. To determine the role of Shh in regulating midline pathfinding, we analyzed the trajectory of commissural axons in rat E13 “open-book” spinal cord preparations treated with the function-blocking antibody for Shh, 5E1. The projections of these commissural axons were visualized by injecting the lipophilic dye, DiI, to the dorsal margin of the spinal cord (FIG. 32J). In “open-book” explants, commissural axons can recapitulate the in vivo pathfinding and project from the dorsal spinal cord margin across the floor plate and then turn sharply anteriorly on the contralateral side.^(7,8). […] Normally, after midline crossing, commissural axons make a sharp anterior turn and either project into the ventral funiculus alongside the floor plate or fan out in a highly organized manner to grow laterally into the lateral funiculus^(7) (FIG. 32G). […] The spinal cord midline is a three-dimensional structure. […] Some of the injection sites were therefore scored for more than one category of phenotypes. […]
Shh may induce Sema repulsion by reducing cAMP/PKA signaling. […] In “open-book” explant cultures we treated commissural axons with the activator for adenylyl cyclase (and consequently cAMP), Forskolin and the PKA inhibitor KT5720 and analyzed commissural axon pathfidning by DiI tracing as shown in FIG. 32J. […]

For experiment [2], the system named is PKA. The experiment can be described thus: Western blot of activated phospho-PKA (Thr197) in dissociated commissural neurons. The class given is cell-based, rat. As to conditions: Shh-N 2.5 μg/ml for one hour; KT5720 25 μM for 15 minutes. The protocol:
To confirm that PKA activity can be reduced in commissural neurons exposed to Shh, we treated dissociated spinal cord commissural neurons with Shh and analyzed the level of activated PKA. 24 hr after plating, commissural neurons were serum starved overnight and then treated with 2.5 μg/ml (150 nM) of Shh-N recombinant protein (R&D) for one hour prior to lysate collection. Forskolin (25 μM), and the PKA inhibitor, KT5720 (25 μM) were added to the commissural neuron culture as controls for 15 minutes before lysis. We then tested these lysates for levels of activated PKA with an antibody that specifically recognizes an activated form of the catalytic domain of PKA (phosphorylated at Thr197).
Dissociated commissural neuronal culture. Spinal cords were isolated from rat E13 embryos and commissural neurons were dissociated as previously described.^(8) In brief, embryos were treated with Dispase I (0.25 mg/ml; D4818, Sigma) for 5 minutes prior isolation of spinal cords, followed by collection of spinal cord dorsal domains by microdissection and incubation with Trypsin (1 mg/ml; T47-99, Sigma) for 10-12 min in a 37° C. water bath. The tissue was then triturated with flamed glass pipettes and a single cell suspension was plated on poly-D-lysine (PDL; 20 μg/ml) and laminin (10 μg/ml) coated coverslips or 12 well plates (Corning). More than 90% cells in these cultures express TAG-1, a marker for spinal cord commissural neurons (FIG. 35B). 10^5 dissociated cells were plated on PDL/laminin coated coverslips and cultured for 24 hrs before processed for immunohistochemistry as described above. For Western blot analysis, 10^6 dissociated cells were plated on PDL/laminin coated 12-well tissue culture plates and cultured initially for 24 hrs in dorsal explant media (replenished daily) then changed to low serum medium overnight prior to treatments. […]
Background: Immunoblotting shows a protein as a band on a membrane.

On to `CCCCCCOC(=O)[C@]1(O)C[C@@H]2O[C@@]1(C)n1c3ccccc3c3c4c(c5c6ccccc6n2c5c31)C(=O)NC4` [KT5720, reference compound], for which the “commissural axon midline pathfinding (DiI tracing)” value in experiment [1] is on record as “prevented a vast number of axons from entering the floor plate”. For the same compound, in experiment [2], the “level of activated PKA” value is given as “reduce the level of activated PKA”.
